Measured values taken from the supplement of paper PMC10307832.

Experiments:
Assay in all cases: relative viability (nuclei count vs DMSO), 5 days (fraction); higher = more cells survive
[1] = system: 201T
In short: (§1)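 Relative viability equals treated-well nuclei counts divided by vehicle-well nuclei counts. Counts came from 4× images of lung cancer cell lines grown in 1536-well plates for 5 days after pin-tool dosing on the day after seeding. Dosing used one drug alone or a fixed anchor-drug dose plus five library-drug doses (not always all listed) in √10 steps, and values are medians of duplicate plates.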

[2] = system: HCC-827
In short: as §1

[3] = system: RERF-LC-KJ
In short: as §1

[4] = system: NCI-H2087
In short: as §1

[5] = system: NCI-H1915
In short: as §1

[6] = system: NCI-H1666
In short: as §1

[7] = system: PC-14
In short: as §1

[8] = system: NCI-H647
In short: as §1

[9] = system: H3255
In short: as §1

[10] = system: HCC-78
In short: as §1

[11] = system: NCI-H23
In short: as §1

[12] = system: NCI-H2347
In short: as §1

[13] = system: NCI-H2405
In short: as §1

[14] = system: NCI-H2126
In short: as §1

[15] = system: NCI-H650
In short: as §1

[16] = system: LC-2-ad
In short: as §1

[17] = system: EPLC-272H
In short: as §1

[18] = system: LCLC-97TM1
In short: as §1

[19] = system: ChaGo-K-1
In short: as §1

[20] = system: NCI-H520
In short: as §1

[21] = system: COR-L 105
In short: as §1

In the case of CCN(CC)CCCCNc1ncc2cc(-c3cc(OC)cc(OC)c3)c(NC(=O)NC(C)(C)C)nc2n1 + NC(=O)Nc1cc(-c2cccc(F)c2)sc1C(=O)N[C@H]1CCCNC1 [AZD7762] (partner 0.2 µM), the relative viability ([1]; first compound 0.01 µM) is reported as 0.747, the relative viability ([1]; first compound 0.03162 µM) is reported as 0.617 and the relative viability ([1]; first compound 0.1 µM) is reported as 0.68. For the same compound, the relative viability ([1]; first compound 0.3162 µM) was 0.685, the relative viability ([1]; first compound 1 µM) was 0.758 and the relative viability ([2]; first compound 0.01 µM) was 0.222. The relative viability ([2]; first compound 0.03162 µM) was 0.249, the relative viability ([2]; first compound 0.1 µM) was 0.217 and the relative viability ([2]; first compound 0.3162 µM) was 0.236. For the same compound, the relative viability ([2]; first compound 1 µM) was 0.196, the relative viability ([3]; first compound 0.01 µM) was 0.919 and the relative viability ([3]; first compound 0.03162 µM) was 1.04. For the same compound, the relative viability ([3]; first compound 0.1 µM) was 0.983, the relative viability ([3]; first compound 0.3162 µM) was 1.28 and the relative viability ([3]; first compound 1 µM) was 1.1. The relative viability ([4]; first compound 0.01 µM) was 1.21, the relative viability ([4]; first compound 0.03162 µM) was 1.31 and the relative viability ([4]; first compound 0.1 µM) was 1.34. It also gave a relative viability ([4]; first compound 0.3162 µM) of 1.29, a relative viability ([4]; first compound 1 µM) of 1.18 and a relative viability ([5]; first compound 0.01 µM) of 0.655. It also gave a relative viability ([5]; first compound 0.03162 µM) of 0.753, a relative viability ([5]; first compound 0.1 µM) of 0.708 and a relative viability ([5]; first compound 0.3162 µM) of 0.757. For the same compound, the relative viability ([5]; first compound 1 µM) was 0.736, the relative viability ([6]; first compound 0.01 µM) was 0.836 and the relative viability ([6]; first compound 0.03162 µM) was 0.848. It also gave a relative viability ([6]; first compound 0.1 µM) of 0.889, a relative viability ([6]; first compound 0.3162 µM) of 1.12 and a relative viability ([6]; first compound 1 µM) of 0.727. For the same compound, the relative viability ([7]; first compound 0.01 µM) was 0.352, the relative viability ([7]; first compound 0.03162 µM) was 0.347 and the relative viability ([7]; first compound 0.1 µM) was 0.568. The relative viability ([7]; first compound 0.3162 µM) was 0.497, the relative viability ([7]; first compound 1 µM) was 0.316 and the relative viability ([8]; first compound 0.01 µM) was 0.272. The relative viability ([8]; first compound 0.03162 µM) was 0.612, the relative viability ([8]; first compound 0.1 µM) was 0.495 and the relative viability ([8]; first compound 0.3162 µM) was 0.476. For the same compound, the relative viability ([8]; first compound 1 µM) was 0.247, the relative viability ([9]; first compound 0.01 µM) was 0.84 and the relative viability ([9]; first compound 0.03162 µM) was 0.909. It also gave a relative viability ([9]; first compound 0.1 µM) of 0.911, a relative viability ([9]; first compound 0.3162 µM) of 1.11 and a relative viability ([9]; first compound 1 µM) of 0.855. For the same compound, the relative viability ([10]; first compound 0.01 µM) was 0.394, the relative viability ([10]; first compound 0.03162 µM) was 0.647 and the relative viability ([10]; first compound 0.1 µM) was 0.726. It also gave a relative viability ([10]; first compound 0.3162 µM) of 0.745, a relative viability ([10]; first compound 1 µM) of 0.549 and a relative viability ([11]; first compound 0.01 µM) of 0.229. It also gave a relative viability ([11]; first compound 0.03162 µM) of 0.352, a relative viability ([11]; first compound 0.1 µM) of 0.323 and a relative viability ([11]; first compound 0.3162 µM) of 0.207. For the same compound, the relative viability ([11]; first compound 1 µM) was 0.172, the relative viability ([12]; first compound 0.01 µM) was 0.737 and the relative viability ([12]; first compound 0.03162 µM) was 0.622. The relative viability ([12]; first compound 0.1 µM) was 0.842, the relative viability ([12]; first compound 0.3162 µM) was 0.748 and the relative viability ([12]; first compound 1 µM) was 0.684. The relative viability ([13]; first compound 0.01 µM) was 0.792, the relative viability ([13]; first compound 0.03162 µM) was 0.734 and the relative viability ([13]; first compound 0.1 µM) was 0.812. It also gave a relative viability ([13]; first compound 0.3162 µM) of 0.803, a relative viability ([13]; first compound 1 µM) of 0.628 and a relative viability ([14]; first compound 0.01 µM) of 0.976. For the same compound, the relative viability ([14]; first compound 0.03162 µM) was 1, the relative viability ([14]; first compound 0.1 µM) was 1.15 and the relative viability ([14]; first compound 0.3162 µM) was 1.13. For the same compound, the relative viability ([14]; first compound 1 µM) was 1.01, the relative viability ([15]; first compound 0.01 µM) was 0.909 and the relative viability ([15]; first compound 0.03162 µM) was 0.944. The relative viability ([15]; first compound 0.1 µM) was 0.97, the relative viability ([15]; first compound 0.3162 µM) was 1.22 and the relative viability ([15]; first compound 1 µM) was 0.994. It also gave a relative viability ([16]; first compound 0.01 µM) of 0.878, a relative viability ([16]; first compound 0.03162 µM) of 0.798 and a relative viability ([16]; first compound 0.1 µM) of 0.92. The relative viability ([16]; first compound 0.3162 µM) was 0.932, the relative viability ([16]; first compound 1 µM) was 0.815 and the relative viability ([17]; first compound 0.01 µM) was 0.199. For the same compound, the relative viability ([17]; first compound 0.1 µM) was 0.36, the relative viability ([17]; first compound 0.3162 µM) was 0.188 and the relative viability ([17]; first compound 1 µM) was 0.198. The relative viability ([18]; first compound 0.03162 µM) was 0.384, the relative viability ([18]; first compound 0.1 µM) was 0.275 and the relative viability ([18]; first compound 0.3162 µM) was 0.234. For the same compound, the relative viability ([18]; first compound 1 µM) was 0.227, the relative viability ([19]; first compound 0.01 µM) was 0.885 and the relative viability ([19]; first compound 0.03162 µM) was 0.927. For the same compound, the relative viability ([19]; first compound 0.1 µM) was 0.956, the relative viability ([19]; first compound 0.3162 µM) was 0.878 and the relative viability ([19]; first compound 1 µM) was 0.853.

COc1nc(C)cnc1NS(=O)(=O)c1cccnc1-c1ccc(-c2nnco2)cc1 [Zibotentan] + CC1(C)CCC(c2ccc(Cl)cc2)=C(CN2CCN(c3ccc(C(=O)NS(=O)(=O)c4ccc(N[C@H](CCN5CCOCC5)CSc5ccccc5)c(S(=O)(=O)C(F)(F)F)c4)cc3)CC2)C1 [Navitoclax] (partner 0.5 µM) showed a relative viability ([1]; first compound 0.08 µM) of 1.23, a relative viability ([1]; first compound 0.253 µM) of 1.21 and a relative viability ([1]; first compound 0.8 µM) of 1.23. For the same compound, the relative viability ([1]; first compound 2.53 µM) was 1.21, the relative viability ([2]; first compound 0.08 µM) was 1.01 and the relative viability ([2]; first compound 0.253 µM) was 1. It also gave a relative viability ([2]; first compound 0.8 µM) of 1.02, a relative viability ([2]; first compound 2.53 µM) of 1.02 and a relative viability ([3]; first compound 0.08 µM) of 0.996. It also gave a relative viability ([3]; first compound 0.253 µM) of 1.2, a relative viability ([3]; first compound 0.8 µM) of 0.887 and a relative viability ([3]; first compound 2.53 µM) of 0.976. It also gave a relative viability ([4]; first compound 0.08 µM) of 1.03, a relative viability ([4]; first compound 0.253 µM) of 1.15 and a relative viability ([4]; first compound 0.8 µM) of 0.983. The relative viability ([4]; first compound 2.53 µM) was 1.05, the relative viability ([5]; first compound 0.08 µM) was 0.732 and the relative viability ([5]; first compound 0.253 µM) was 0.79. For the same compound, the relative viability ([5]; first compound 0.8 µM) was 0.805, the relative viability ([5]; first compound 2.53 µM) was 0.797 and the relative viability ([6]; first compound 0.08 µM) was 0.878. For the same compound, the relative viability ([6]; first compound 0.253 µM) was 0.785, the relative viability ([6]; first compound 0.8 µM) was 0.767 and the relative viability ([6]; first compound 2.53 µM) was 1.01. For the same compound, the relative viability ([7]; first compound 0.08 µM) was 1.01, the relative viability ([7]; first compound 0.253 µM) was 0.983 and the relative viability ([7]; first compound 0.8 µM) was 0.987. For the same compound, the relative viability ([7]; first compound 2.53 µM) was 1.03, the relative viability ([20]; first compound 0.08 µM) was 1.13 and the relative viability ([20]; first compound 0.253 µM) was 0.93. It also gave a relative viability ([20]; first compound 0.8 µM) of 0.996, a relative viability ([20]; first compound 2.53 µM) of 1.37 and a relative viability ([8]; first compound 0.08 µM) of 1.34. The relative viability ([8]; first compound 0.253 µM) was 0.875, the relative viability ([8]; first compound 0.8 µM) was 1 and the relative viability ([8]; first compound 2.53 µM) was 1.17. The relative viability ([9]; first compound 0.08 µM) was 0.458, the relative viability ([9]; first compound 0.253 µM) was 0.603 and the relative viability ([9]; first compound 0.8 µM) was 0.609. The relative viability ([9]; first compound 2.53 µM) was 0.458, the relative viability ([10]; first compound 0.08 µM) was 0.859 and the relative viability ([10]; first compound 0.253 µM) was 0.687. For the same compound, the relative viability ([10]; first compound 0.8 µM) was 0.664, the relative viability ([10]; first compound 2.53 µM) was 0.764 and the relative viability ([11]; first compound 0.08 µM) was 0.906. The relative viability ([11]; first compound 0.253 µM) was 0.773, the relative viability ([11]; first compound 0.8 µM) was 0.872 and the relative viability ([11]; first compound 2.53 µM) was 0.853. For the same compound, the relative viability ([12]; first compound 0.08 µM) was 0.746, the relative viability ([12]; first compound 0.253 µM) was 0.776 and the relative viability ([12]; first compound 0.8 µM) was 0.741. It also gave a relative viability ([12]; first compound 2.53 µM) of 0.77, a relative viability ([21]; first compound 0.08 µM) of 0.696 and a relative viability ([21]; first compound 0.253 µM) of 0.649. It also gave a relative viability ([21]; first compound 0.8 µM) of 0.993, a relative viability ([21]; first compound 2.53 µM) of 0.84 and a relative viability ([13]; first compound 0.08 µM) of 0.904. The relative viability ([13]; first compound 0.253 µM) was 0.725, the relative viability ([13]; first compound 0.8 µM) was 0.921 and the relative viability ([13]; first compound 2.53 µM) was 1.01. The relative viability ([14]; first compound 0.08 µM) was 0.876, the relative viability ([14]; first compound 0.253 µM) was 0.796 and the relative viability ([14]; first compound 0.8 µM) was 0.724. The relative viability ([14]; first compound 2.53 µM) was 0.883, the relative viability ([16]; first compound 0.08 µM) was 0.36 and the relative viability ([16]; first compound 0.253 µM) was 0.386. For the same compound, the relative viability ([16]; first compound 0.8 µM) was 0.533, the relative viability ([16]; first compound 2.53 µM) was 0.516 and the relative viability ([17]; first compound 0.08 µM) was 1.09. It also gave a relative viability ([17]; first compound 0.253 µM) of 1.1, a relative viability ([17]; first compound 0.8 µM) of 1.16 and a relative viability ([17]; first compound 2.53 µM) of 1.4. For the same compound, the relative viability ([18]; first compound 0.08 µM) was 0.365, the relative viability ([18]; first compound 0.253 µM) was 0.402 and the relative viability ([18]; first compound 0.8 µM) was 0.403. For the same compound, the relative viability ([18]; first compound 2.53 µM) was 0.447, the relative viability ([19]; first compound 0.08 µM) was 0.95 and the relative viability ([19]; first compound 0.8 µM) was 0.695. It also gave a relative viability ([19]; first compound 2.53 µM) of 0.888.
